According to patent publication US20190315823A1, “SMALL CATIONIC ANTI-BIOFILM AND IDR PEPTIDES” (priority 2013, published 2019):
Ends that are not written are not given here.

Key:
[1] = tested on: S. aureus biofilms; assay: checkerboard titration biofilm synergy (MBIC, FIC); type: cell-based
Procedure: Peptides and various conventional antibiotics were analyzed by checkerboard titration into microtiter trays using CLSI methods (Wiegand, I., K. Hilpert, and R. E. W. Hancock. 2008. Nature Protocols 3:163-175), bacteria added and, after overnight incubation at 37° C., the residual biofilm assessed by the crystal violet method mentioned in the body of the grant, with an A595 of 0.2 considered as 100% biofilm inhibition. The effects of the peptide in reducing the minimal biofilm inhibitory concentration (MBIC) of the antibiotic and vice versa were assessed using the Fractional Inhibitory Concentration (FIC) method whereby ΣFTC=FICA+FICB=(CA/MICA)+(CB/MICB), where MBICA and MBICB are the MBICs of peptide A and antibiotic B alone, respectively, and CA and CB (expressed in μg/ml) are the MICs of the drugs in combination. This conventional clinical microbiology assay is interpreted as follows

[2] = tested on: methicillin resistant Staphylococcus aureus (MRSA) biofilm; settings: approximate peptide concentration […] (around 3 μg/ml); compared to untreated samples
How it was run: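 Peptide was present from inoculation onward, with bacteria seeded at 1/100 from overnight cultures into BM2 biofilm medium or Luria Broth. Crystal violet staining of surface-attached cells (A595) quantified biofilm reduction at 22–46 h. K. pneumoniae was additionally screened in a real-time Bioflux flow device for some peptides.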

[3] = tested on: human peripheral blood mononuclear cells (MCP-1); assay: SPOT-synthesized derivative screen: production of chemokine MCP-1; type: cell-based; settings: Table 12, No LPS, human PBMC, peptide at ~18-24 μM; for MCP1: background subtracted 139 (HH2 derivatives), 170 (1018 derivatives), 242 (1002 and hybrid peptides) pg/ml
How it was run: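 MCP-1 was quantified by capture ELISA in cleared culture supernatants of treated human peripheral blood mononuclear cells. Cells came from heparinized volunteer blood via Ficoll gradient and were seeded at 0.75 to 1×10^6 cells/ml (37 °C, 5% CO2).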

[4] = tested on: LPS-stimulated human peripheral blood mononuclear cells (IL1-β); type: cell-based; settings: Table 12, cells stimulated with 10 ng/ml LPS; for IL1β Production: LPS alone 1313 (HH2 derivatives), 1927 (1018 derivatives), 2455 (1002 and hybrid peptides) pg/ml

Row | Molecule | FIC ([1]; antibiotic in combination with peptide DJK6) | Fold decrease in antibiotic concentration ([1]; in the presence of peptide DJK6) | % Biofilm inhibition [2] | Fold increase in MCP1 cf. untreated cells [3] | MCP1 [3] | Fold change in IL1β relative to no peptide LPS stimulated cells [4] | IL1β Production [4]
1 | CN[C@H](CC(C)C)C(=O)N[C@H]1C(=O)N[C@@H](CC(N)=O)C(=O)N[C@H]2C(=O)N[C@H]3C(=O)N[C@H](C(=O)N[C@H](C(=O)O)c4cc(O)cc(O)c4-c4cc3ccc4O)[C@H](O)c3ccc(c(Cl)c3)Oc3cc2cc(c3O[C@@H]2O[C@H](CO)[C@@H](O)[C@H](O)[C@H]2O[C@H]2C[C@](C)(N)[C@H](O)[C@H](C)O2)Oc2ccc(cc2Cl)[C@H]1O [Vancomycin] | 0.4 | 16 |  |  |  |  | 
2 | HH2-V2: single substituted HH2 peptide (VVLRIRVAVIRA-NH2) |  |  | 77% | 24 | 3945 pg/mL | 0.97 | 1267 pg/mL
3 | HH2-V3: single substituted HH2 peptide (VQVRIRVAVIRA-NH2) |  |  | 57% | 211 | 35750 pg/mL | 1.27 | 1665 pg/mL
4 | HH2-V4: single substituted HH2 peptide (VQLVIRVAVIRA-NH2) |  |  | 60% | 20 | 3216 pg/mL | 0.67 | 877 pg/mL
5 | HH2-V5: single substituted HH2 peptide (VQLRVRVAVIRA-NH2) |  |  | 50% | 9.3 | 1409 pg/mL | 1.29 | 1696 pg/mL
6 | HH2-V6: single substituted HH2 peptide (VQLRIVVAVIRA-NH2) |  |  | 39% | 40 | 6624 pg/mL | 0.53 | 694 pg/mL
7 | HH2-V8: single substituted HH2 peptide (VQLRIRVVVIRA-NH2) |  |  | 66% | 45 | 7460 pg/mL | 0.53 | 691 pg/mL
8 | HH2-V10: single substituted HH2 peptide (VQLRIRVAVVRA-NH2) |  |  | 68% | 36 | 5929 pg/mL | 1.06 | 1390 pg/mL
9 | HH2-V11: single substituted HH2 peptide (VQLRIRVAVIVA-NH2) |  |  | 51% | 5.6 | 788 pg/mL | 1.15 | 1515 pg/mL
10 | HH2-V12: single substituted HH2 peptide (VQLRIRVAVIRV-NH2) |  |  | 65% | 33 | 5492 pg/mL | 0.85 | 1119 pg/mL
11 | HH2-W1: single substituted HH2 peptide (WQLRIRVAVIRA-NH2) |  |  | 67% | 29 | 4725 pg/mL | 0.66 | 866 pg/mL
12 | HH2-W2: single substituted HH2 peptide (VWLRIRVAVIRA-NH2) |  |  | 70% | 12 | 1802 pg/mL | 0.98 | 1293 pg/mL
13 | HH2-W3: single substituted HH2 peptide (VQWRIRVAVIRA-NH2) |  |  | 62% | 21 | 3418 pg/mL | 0.67 | 874 pg/mL
14 | HH2-W4: single substituted HH2 peptide (VQLWIRVAVIRA-NH2) |  |  | 58% | 24 | 3945 pg/mL | 0.30 | 399 pg/mL
15 | HH2-W5: single substituted HH2 peptide (VQLRWRVAVIRA-NH2) |  |  | 63% | 14 | 2198 pg/mL | 0.77 | 1007 pg/mL
16 | HH2-W6: single substituted HH2 peptide (VQLRIWVAVIRA-NH2) |  |  | 56% | 4.1 | 534 pg/mL | 0.55 | 718 pg/mL
17 | HH2-W7: single substituted HH2 peptide (VQLRIRWAVIRA-NH2) |  |  | 70% | 9.2 | 1395 pg/mL | 0.88 | 1154 pg/mL
18 | HH2-W8: single substituted HH2 peptide (VQLRIRVWVIRA-NH2) |  |  | 75% | 81 | 13556 pg/mL | 0.42 | 553 pg/mL
19 | HH2-W9: single substituted HH2 peptide (VQLRIRVAWIRA-NH2) |  |  | 75% | 31 | 4995 pg/mL | 0.80 | 1050 pg/mL
20 | HH2-W10: single substituted HH2 peptide (VQLRIRVAVWRA-NH2) |  |  | 48% | 15 | 2448 pg/mL | 1.02 | 1344 pg/mL
21 | HH2-W11: single substituted HH2 peptide (VQLRIRVAVIWA-NH2) |  |  | 45% | 15 | 2309 pg/mL | 1.04 | 1362 pg/mL
22 | HH2-W12: single substituted HH2 peptide (VQLRIRVAVIRW-NH2) |  |  | 58% | 44 | 7325 pg/mL | 0.32 | 420 pg/mL
23 | HH2C-HH2N: derivative of HH2, 1002 and 1018 made by SPOT synthesis (VAVIRAVQLRIR-NH2) |  |  | 61% | 2.0 | 239.0 pg/mL | 0.31 | 769 pg/mL
